These results are taken from PMC12519464, “Dual-Site Inhibition of SARS-CoV‑2 RNA-Dependent RNA Polymerase by Small Molecules Able to Block Viral Replication Identified through a Computer-Aided Drug Discovery Approach” (ACS Infectious Diseases, 2025).

In this experiment the target is SARS-CoV-2 nsp12/7/8 (RTC) complex (Severe acute respiratory syndrome coronavirus 2, UniProt P0DTD1). The experiment can be described thus: biochemical. Type of experiment: biochemical.
The mark [1] stands for this setting: read-out: IC50: compound concentration required to inhibit by 50% the SARS-CoV-2 RTC enzymatic activity.
Where [2] appears, read: primer-extension PAGE assay, 150 nM RTC, 5% DMSO, 30 min preincubation at 37 °C, mean and SD of at least 3 independent experiments.

Where two headings read alike, the source gives them in different places.

`CC1(C)[C@@H](O)CC[C@]2(C)[C@H]3CC=C4[C@@H]5C[C@@]6(C)C[C@H](OC6=O)[C@]5(C)CC[C@@]4(C)[C@]3(C)CC[C@@H]12` [Wilforlide A]: the IC50 under setting [1] is more than 100 µM.

`CC(C)(O)[C@@H]1CC[C@](C)([C@H]2[C@@H](O)C[C@@]3(C)[C@@H]4C[C@H](O)[C@H]5C(C)(C)[C@@H](O)CC[C@@]56C[C@@]46CC[C@]23C)O1` [Cycloastragenol]: the IC50 under setting [1] was more than 100 µM.

For `C[C@@H]1CC[C@]2(C(=O)O)CC[C@]3(C)C(=CC[C@@H]4[C@@]5(C)C[C@@H](O)[C@H](O)C(C)(C)[C@@H]5CC[C@]43C)[C@@H]2[C@]1(C)O` [Tormentic acid], the IC50 under setting [1] is more than 100 µM.

On to `CC#C/C(=N/OC[C@H]1COCCN1)c1ccc2ncnc(Nc3ccc(OCc4cccc(F)c4)c(Cl)c3)c2c1` [N-[3-chloro-4-[(3-fluorophenyl)methoxy]phenyl]-6-[(E)-N-[[(3R)-morpholin-3-yl]methoxy]-C-prop-1-ynylcarbonimidoyl]quinazolin-4-amine, reference compound], for which the IC50 under setting [1] was more than 100 µM.

On to `CC[C@H](CC[C@@H](C)[C@H]1CC[C@H]2[C@@H]3CC=C4C[C@@H](O[C@@H]5O[C@H](CO)[C@@H](O)[C@H](O)[C@H]5O)CC[C@]4(C)[C@H]3CC[C@]12C)C(C)C` [Daucosterol, reference compound], for which the IC50 under setting [2] is more than 100 µM.

`C[C@@H]1C(=O)O[C@H](C)[C@H]1C[C@@H](O)[C@](C)(O)[C@H]1CC[C@@]2(O)C3=CC(=O)[C@@H]4C[C@@H](O)[C@@H](O)C[C@]4(C)[C@H]3CC[C@]12C` [Cyasterone] had an IC50 of more than 100 µM.

In turn, `Cc1ccc(C(=O)Nc2ccc(Oc3cc4cnn(C)c4cc3-c3cn[nH]c3)c(F)c2)c(=O)n1-c1ccc(F)cc1` [Merestinib, reference compound] yielded an IC50 under setting [2] of more than 100 µM.

Take `CC(C)=CCc1c(O)ccc(C(=O)[C@@H]2[C@@H](c3c(O)cc(O)c4c(=O)c(CC=C(C)C)c(-c5ccc(O)cc5O)oc34)C=C(C)C[C@H]2c2ccc(O)cc2O)c1O` [Kuwanon H]: the IC50 under setting [1] came to 66.2 ± 1.81 µM.

For `C[C@H]1[C@H](C)CC[C@]2(C(=O)O)CC[C@]3(C)C(=CC[C@@H]4[C@@]5(C)CC[C@H](O)C(C)(C)[C@@H]5CC[C@]43C)[C@H]12` [3-Epiursolic Acid], the IC50 under setting [1] turned out to be 11.6 ± 3.97 µM.

In the case of `O=C(c1cccc(-c2nc3ccccc3[nH]2)n1)N1CCN(C(=O)c2cccc(-c3nc4ccccc4[nH]3)n2)CC1` [Omilancor, reference compound], the IC50 was more than 100 µM.

On to `Oc1cccc(-c2c3nc(c(-c4cccc(O)c4)c4ccc([nH]4)c(-c4cccc(O)c4)c4nc(c(-c5cccc(O)c5)c5ccc2[nH]5)CC4)C=C3)c1` [Temoporfin, reference compound], for which the IC50 is more than 100 µM.

Turning to `C[C@@H]1CC[C@@]2(OC1)O[C@H]1C[C@H]3[C@@H]4CC=C5C[C@@H](O[C@@H]6O[C@H](CO)[C@@H](O)[C@H](O)[C@H]6O)CC[C@]5(C)[C@H]4CC[C@]3(C)[C@H]1[C@@H]2C` [Disogluside], under setting [2], the IC50 was more than 100 µM.

As for `Cc1cc2c(C(C)C)c(O)c(O)c(C=NCc3ccncc3)c2c(O)c1-c1c(C)cc2c(C(C)C)c(O)c(O)c(C=NCc3ccncc3)c2c1O` [3-methyl-5-propan-2-yl-8-(pyridin-4-ylmethyliminomethyl)-2-[1,6,7-trihydroxy-3-methyl-5-propan-2-yl-8-(pyridin-4-ylmethyliminomethyl)naphthalen-2-yl]naphthalene-1,6,7-triol], under setting [1], the IC50 stood at 16.1 ± 0.32 µM.

Under setting [2], `Nc1nc(Nc2ccc3c(c2)CC[C@@H](N2CCCC2)CC3)nn1-c1cc2c(nn1)-c1ccccc1CCC2` [Bemcentinib, reference compound] yielded an IC50 of 18.5 ± 3.41 µM.

`O=C(O[C@@H]1Cc2c(O)cc(O)cc2O[C@@H]1c1cc(=O)c(O)c2c(O)c(O)cc([C@H]3Oc4cc(O)cc(O)c4C[C@H]3O)c2c1)c1cc(O)c(O)c(O)c1` [Theaflavin 3-gallate]: the IC50 under setting [1] came to 19.8 ± 3.49 µM.

On to `CC[C@H](/C=C/[C@@H](C)[C@H]1CC[C@H]2C3=CC[C@H]4C[C@@H](O[C@@H]5O[C@H](CO)[C@@H](O)[C@H](O)[C@H]5O)CC[C@]4(C)[C@H]3CC[C@]12C)C(C)C` [Alpha-Spinasterol glucoside], for which, under setting [1], the IC50 is more than 100 µM.

`C=CC(=O)N1CCN(c2nc(=O)n(-c3c(C)ccnc3C(C)C)c3nc(-c4c(O)cccc4F)c(F)cc23)[C@@H](C)C1` [Sotorasib, reference compound] displayed an IC50 under setting [2] of 47 ± 10.6 µM.

`C[C@]12C=CC(=O)N[C@@H]1CC[C@@H]1[C@@H]2CC[C@]2(C)[C@@H](C(=O)Nc3cc(C(F)(F)F)ccc3C(F)(F)F)CC[C@@H]12` [Dutasteride, reference compound] showed an IC50 of more than 100 µM.

Consider `COc1cccc(OC)c1-c1cc(C(=O)NC2(C(=O)O)C3CC4CC(C3)CC2C4)nn1-c1ccnc2cc(Cl)ccc12` (centres unmarked) [Meclinertant, reference compound], for which, under setting [2], the IC50 is 15.4 ± 2.77 µM.

Take `CC1(C)CC[C@]2(C(=O)O)CC[C@]3(C)C(=CC[C@@H]4[C@@]5(C)C[C@@H](O)[C@H](O)C(C)(C)[C@@H]5CC[C@]43C)[C@@H]2C1` [Maslinic Acid]: the IC50 was more than 100 µM.

As for `C/C(Nc1ccc(Oc2ccc(N/C(C)=C3\C(=O)C[C@@H]4[C@H]3C4(C)C)cc2)cc1)=C1/C(=O)C[C@@H]2[C@H]1C2(C)C` [(1S,2Z,5R)-2-[1-[4-[4-[[(1Z)-1-[(1S,5R)-6,6-dimethyl-3-oxo-2-bicyclo[3.1.0]hexanylidene]ethyl]amino]phenoxy]anilino]ethylidene]-6,6-dimethylbicyclo[3.1.0]hexan-3-one], the IC50 under setting [1] is more than 100 µM.

For the molecule `CC(C)(O)[C@H]1CC[C@@](C)([C@H]2CC[C@]3(C)[C@@H]2[C@H](O)C[C@@H]2[C@@]4(C)CC[C@H](O)C(C)(C)[C@@H]4[C@@H](O[C@@H]4O[C@H](CO)[C@@H](O)[C@H](O)[C@H]4O)C[C@]23C)O1` [Pseudoginsenoside Rt5], the IC50 under setting [1] is more than 100 µM.

In the case of `CC(C)(O)CC[C@H]1OC(C)(C)O[C@]1(C)[C@H]1CC[C@@]2(O)C3=CC(=O)[C@@H]4C[C@@H](O)[C@@H](O)C[C@]4(C)[C@H]3CC[C@]12C` [20-Hydroxyecdysone 20,22-acetonide], the IC50 under setting [1] was more than 100 µM.

In turn, `C[C@H]1[C@H](C)CC[C@]2(C(=O)O)CC[C@]3(C)C(=CC[C@@H]4[C@@]5(C)C[C@@H](O)[C@H](O)C(C)(C)[C@@H]5CC[C@]43C)[C@H]12` [Corosolic acid, reference compound] gave an IC50 of more than 100 µM.

On to `Cc1ccc(-n2nc(C(C)(C)C)cc2NC(=O)Nc2ccc(OCCN3CCOCC3)c3ccccc23)cc1` [Doramapimod, reference compound], for which the IC50 was more than 100 µM.

Regarding `CC(C)=CCC[C@@](C)(O)[C@H]1CC[C@]2(C)[C@@H]1[C@H](O)C[C@@H]1[C@@]3(C)CC[C@H](O[C@@H]4O[C@H](CO)[C@@H](O)[C@H](O)[C@H]4O)C(C)(C)[C@@H]3CC[C@]12C` [20(R)-Ginsenoside Rh2], under setting [1], the IC50 was more than 100 µM.

Take `CO[C@H]1/C=C/O[C@@]2(C)Oc3c(C)c(O)c4c(c3C2=O)C(=O)C(N2CCCC2)=C(NC(=O)/C(C)=C\C=C\[C@H](C)[C@H](O)[C@@H](C)[C@H](O)[C@H](C)[C@H](O)[C@@H]1C)C4=O` [(7S,9E,11S,12S,13S,14S,15S,16R,17S,18S,19E,21Z)-2,13,15,17-tetrahydroxy-11-methoxy-3,7,12,14,16,18,22-heptamethyl-26-pyrrolidin-1-yl-8,30-dioxa-24-azatetracyclo[23.3.1.14,7.05,28]triaconta-1(28),2,4,9,19,21,25-heptaene-6,23,27,29-tetrone]: the IC50 under setting [1] came to 46.1 ± 15.6 µM.

`CS(=O)(=O)c1cccc(C[C@H](NC(=O)c2c(Cl)cc3c(c2Cl)CCN(C(=O)c2ccc4ccoc4c2)C3)C(=O)O)c1` [Lifitegrast, reference compound]: under setting [2], the IC50 was more than 100 µM.

In turn, `CN(C(=O)c1ccc(F)cc1C(F)(F)F)C1CCN(c2nnc(-c3ccnn3C)c3ccccc23)CC1` [Taladegib, reference compound] registered an IC50 of more than 100 µM.

Turning to `CC1(C)CC[C@]2(C(=O)O)CCC3=C([C@@H](CCl)C[C@@H]4[C@@]5(C)C[C@H](O)[C@H](O)[C@@](C)(C(=O)O)[C@@H]5CC[C@@]34C)[C@@H]2C1` [Senegenin], under setting [1], the IC50 is more than 100 µM.

On to `CC1(C)CC[C@]2(C)CC[C@]3(C)C(=CC[C@@H]4[C@@]5(C)CC[C@@H](O)[C@](C)(C(=O)O)[C@@H]5CC[C@]43C)[C@@H]2C1` [Alpha-Boswellic acid], for which, under setting [1], the IC50 came out at 93.5 ± 9.14 µM.

In the case of `Cc1ccccc1NC(=O)Nc1ccc(CN2C(=O)N([C@@H](CC(C)C)C(=O)N[C@@H](CC(=O)O)c3ccccc3)C(=O)C2(C)C)cc1` [HMR1031, reference compound], the IC50 under setting [1] worked out at 91.2 ± 4.88 µM.

On to `CO[C@H]1/C=C/O[C@@]2(C)Oc3c(C)c(O)c4c(O)c(c5c(nc6cc(C)ccn65)c4c3C2=O)NC(=O)/C(C)=C\C=C\[C@H](C)[C@H](O)[C@@H](C)[C@@H](O)[C@@H](C)[C@H](OC(C)=O)[C@@H]1C` [Rifaximin, reference compound], for which the IC50 under setting [2] was more than 100 µM.

`CC1=C(/C=C/C(C)=C/C=C/C(C)=C/C(=O)Nc2ccc(O)cc2)C(C)(C)CCC1` [Fenretinide, reference compound] showed an IC50 of more than 100 µM.

As to `CN1C(=O)c2c(nn(Cc3ccc(-c4cccc(F)n4)cc3)c2Nc2ccccc2)N2C1=N[C@@H]1CCC[C@@H]12` [Lenrispodun, reference compound], the IC50 under setting [2] amounted to 24.2 ± 8.68 µM.

`C[C@H]1[C@H](C)CC[C@]2(C(=O)O)CC[C@]3(C)C(=CC[C@@H]4[C@@]5(C)CCC(=O)C(C)(C)[C@@H]5CC[C@]43C)[C@H]12` [Ursonic acid] showed an IC50 of 26.5 ± 12.6 µM.

Consider `O=C(Nc1nc(-c2cc(Cl)cs2)c(N2CCN(C3CCCCC3)CC2)s1)c1cnc(N2CCC(C(=O)O)CC2)c(Cl)c1` [Avatrombopag, reference compound], for which the IC50 under setting [2] turned out to be 27.2 ± 7.35 µM.

In the case of `Cc1ccccc1N=Cc1c(O)c(O)c(C(C)C)c2cc(C)c(-c3c(C)cc4c(C(C)C)c(O)c(O)c(C=Nc5ccccc5C)c4c3O)c(O)c12` [3-methyl-8-[(2-methylphenyl)iminomethyl]-5-propan-2-yl-2-[1,6,7-trihydroxy-3-methyl-8-[(2-methylphenyl)iminomethyl]-5-propan-2-ylnaphthalen-2-yl]naphthalene-1,6,7-triol], under setting [1], the IC50 is 28.4 ± 7.42 µM.
